Test system: 415267-285-R-J2-PDC complex spheroid viability
Test: Anticancer human tumor 415267-285-R-J2-PDC patient-derived breast carcinoma cell line growth inhibition [POLQ]
Settings: for IC50: curve of first compound; for viability, T/C: stronger effect = lower value
In short: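 Complex spheroid viability model combining PDC tumour cells with endothelial (HUVEC) and MSC stromal cells. Novobiocin, ART-558 or RP6685 were tested singly and in combination with standard and investigational anticancer drugs. Each was titrated in half-log steps from near clinical Cmax, or from 10 microM where Cmax was unknown.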

[1] = second compound 0.0316 µM, first compound 0.0316 µM
[2] = second compound 0.0316 µM, first compound 0.1 µM
[3] = second compound 0.0316 µM, first compound 0.316 µM
[4] = second compound 0.0316 µM, first compound 1 µM
[5] = second compound 0.0316 µM, first compound 3.16 µM
[6] = second compound 0.0316 µM, first compound 10 µM
[7] = second compound 0.1 µM, first compound 0.0316 µM
[8] = second compound 0.1 µM, first compound 0.1 µM
[9] = second compound 0.1 µM, first compound 0.316 µM
[10] = second compound 0.1 µM, first compound 1 µM
[11] = second compound 0.1 µM, first compound 3.16 µM
[12] = second compound 0.1 µM, first compound 10 µM
[13] = second compound 0.316 µM, first compound 0.0316 µM
[14] = second compound 0.316 µM, first compound 0.1 µM
[15] = second compound 0.316 µM, first compound 0.316 µM
[16] = second compound 0.316 µM, first compound 1 µM
[17] = second compound 0.316 µM, first compound 3.16 µM
[18] = second compound 0.316 µM, first compound 10 µM
[19] = second compound 1 µM, first compound 0.0316 µM
[20] = second compound 1 µM, first compound 0.1 µM
[21] = second compound 1 µM, first compound 0.316 µM
[22] = second compound 1 µM, first compound 1 µM
[23] = second compound 1 µM, first compound 3.16 µM
[24] = second compound 1 µM, first compound 10 µM
[25] = second compound 3.16 µM, first compound 0.0316 µM
[26] = second compound 3.16 µM, first compound 0.1 µM
[27] = second compound 3.16 µM, first compound 0.316 µM
[28] = second compound 3.16 µM, first compound 1 µM
[29] = second compound 3.16 µM, first compound 3.16 µM
[30] = second compound 3.16 µM, first compound 10 µM
[31] = second compound 10 µM, first compound 0.0316 µM
[32] = second compound 10 µM, first compound 0.1 µM
[33] = second compound 10 µM, first compound 0.316 µM
[34] = second compound 10 µM, first compound 1 µM
[35] = second compound 10 µM, first compound 3.16 µM
[36] = second compound 10 µM, first compound 10 µM
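Further: spheroids exposed to compounds for one week before readout.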
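Wherever viability, T/C is given: luminescence used as stand-in measure of viable cells; 100% = DMSO vehicle control viability.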

## CNCc1ccc(-c2[nH]c3cc(F)cc4c3c2CCNC4=O)cc1 + Nc1ccc(C#CCN(C(=O)Cc2ncc(C(F)(F)F)cc2C(F)(F)F)c2ccc(F)cc2)nn1
Second compound 0.0316 µM
  IC50: > 10000 nM
Second compound 0.1 µM
  IC50: > 10000 nM
Second compound 0.316 µM
  IC50: > 10000 nM
Second compound 1 µM
  IC50: > 10000 nM
Second compound 3.16 µM
  IC50: > 10000 nM
Second compound 10 µM
  IC50: > 10000 nM
[1]
  viability, T/C: 98.9%
[2]
  viability, T/C: 107%
[3]
  viability, T/C: 91.1%
[4]
  viability, T/C: 84.6%
[5]
  viability, T/C: 91.9%
[6]
  viability, T/C: 103%
[7]
  viability, T/C: 89.7%
[8]
  viability, T/C: 105%
[9]
  viability, T/C: 93.2%
[10]
  viability, T/C: 87.9%
[11]
  viability, T/C: 101%
[12]
  viability, T/C: 102%
[13]
  viability, T/C: 98.9%
[14]
  viability, T/C: 93.2%
[15]
  viability, T/C: 91.4%
[16]
  viability, T/C: 106%
[17]
  viability, T/C: 94.4%
[18]
  viability, T/C: 108%
[19]
  viability, T/C: 97.3%
[20]
  viability, T/C: 98.7%
[21]
  viability, T/C: 92.9%
[22]
  viability, T/C: 98.6%
[23]
  viability, T/C: 106%
[24]
  viability, T/C: 118%
[25]
  viability, T/C: 91.1%
[26]
  viability, T/C: 100%
[27]
  viability, T/C: 94%
[28]
  viability, T/C: 96.5%
[29]
  viability, T/C: 109%
[30]
  viability, T/C: 107%
[31]
  viability, T/C: 101%
[32]
  viability, T/C: 97.6%
[33]
  viability, T/C: 105%
[34]
  viability, T/C: 105%
[35]
  viability, T/C: 113%
[36]
  viability, T/C: 110%

## CC1COCCN1c1cc(C2(S(C)(=N)=O)CC2)nc(-c2ccnc3[nH]ccc23)n1 (stereo unspecified) + Cc1cccc(N(C)C(=O)C2C(O)CCN2c2nc(C)cc(C(F)(F)F)c2C#N)c1
Second compound 0.0316 µM
  IC50: 488 nM
Second compound 0.1 µM
  IC50: 447 nM
Second compound 0.316 µM
  IC50: 441 nM
Second compound 1 µM
  IC50: 473 nM
Second compound 3.16 µM
  IC50: 422 nM
Second compound 10 µM
  IC50: 501 nM
[1]
  viability, T/C: 88.4%
[2]
  viability, T/C: 102%
[3]
  viability, T/C: 70.3%
[4]
  viability, T/C: 15.8%
[5]
  viability, T/C: 6.51%
[6]
  viability, T/C: 5.21%
[7]
  viability, T/C: 92.8%
[8]
  viability, T/C: 96.3%
[9]
  viability, T/C: 65%
[10]
  viability, T/C: 14.3%
[11]
  viability, T/C: 5.97%
[12]
  viability, T/C: 4.58%
[13]
  viability, T/C: 102%
[14]
  viability, T/C: 98.7%
[15]
  viability, T/C: 62.8%
[16]
  viability, T/C: 17.7%
[17]
  viability, T/C: 6.78%
[18]
  viability, T/C: 4.96%
[19]
  viability, T/C: 106%
[20]
  viability, T/C: 107%
[21]
  viability, T/C: 70.2%
[22]
  viability, T/C: 12.4%
[23]
  viability, T/C: 6.47%
[24]
  viability, T/C: 5.16%
[25]
  viability, T/C: 94.2%
[26]
  viability, T/C: 94.8%
[27]
  viability, T/C: 62.4%
[28]
  viability, T/C: 12.5%
[29]
  viability, T/C: 6.4%
[30]
  viability, T/C: 5.39%
[31]
  viability, T/C: 91.6%
[32]
  viability, T/C: 102%
[33]
  viability, T/C: 72.7%
[34]
  viability, T/C: 15.7%
[35]
  viability, T/C: 6.3%
[36]
  viability, T/C: 4.96%

## O=c1[nH]cc(F)c(=O)[nH]1 + COC1C(OC(N)=O)C(O)C(Oc2ccc3c(O)c(NC(=O)c4ccc(O)c(CC=C(C)C)c4)c(=O)oc3c2C)OC1(C)C
Second compound 0.0316 µM
  IC50: 194 nM
Second compound 0.1 µM
  IC50: 197 nM
Second compound 0.316 µM
  IC50: 162 nM
Second compound 1 µM
  IC50: 176 nM
Second compound 3.16 µM
  IC50: 205 nM
Second compound 10 µM
  IC50: 203 nM
[1]
  viability, T/C: 94.1%
[2]
  viability, T/C: 72.7%
[3]
  viability, T/C: 33.1%
[4]
  viability, T/C: 31.1%
[5]
  viability, T/C: 27.2%
[6]
  viability, T/C: 37.1%
[7]
  viability, T/C: 86.9%
[8]
  viability, T/C: 73.1%
[9]
  viability, T/C: 34.2%
[10]
  viability, T/C: 23.7%
[11]
  viability, T/C: 26.5%
[12]
  viability, T/C: 39.3%
[13]
  viability, T/C: 97.7%
[14]
  viability, T/C: 63.8%
[15]
  viability, T/C: 31%
[16]
  viability, T/C: 27.2%
[17]
  viability, T/C: 26.7%
[18]
  viability, T/C: 34.5%
[19]
  viability, T/C: 85.8%
[20]
  viability, T/C: 63.5%
[21]
  viability, T/C: 36.8%
[22]
  viability, T/C: 25.3%
[23]
  viability, T/C: 26.4%
[24]
  viability, T/C: 29.9%
[25]
  viability, T/C: 94.6%
[26]
  viability, T/C: 76.3%
[27]
  viability, T/C: 34.2%
[28]
  viability, T/C: 27.1%
[29]
  viability, T/C: 25.4%
[30]
  viability, T/C: 37.2%
[31]
  viability, T/C: 92%
[32]
  viability, T/C: 70%
[33]
  viability, T/C: 37.8%
[34]
  viability, T/C: 29.9%
[35]
  viability, T/C: 25.3%
[36]
  viability, T/C: 35.7%

From PubChem BioAssay AID1963847 (Molecular Pharmacology Branch, DTP, NCI, 2024)
